Measured values as given in patent publication US12023388B2, “Detection and treatment of caries and microcavities with nanoparticles” (THE REGENTS OF THE UNIVERSITY OF MICHIGAN, priority 2015, dated 2024).

Assay: Cavity diagnosis testing under dental curing lamp with ImageJ image analysis
Parameters: species or system human
Source text: Extracted teeth are obtained from School of Dentistry, University of Michigan (human subjects exempt) and stored in 1% sodium azide before use. The teeth are painted with an acid resistant varnish leaving a 1 mm 2 enamel window on the buccal surface of the crowns of the teeth. […] At the completion of the demineralization, the teeth are rinsed with distilled H2O before subjected to caries activity test. Residual varnish is removed by washing in acetone.
Teeth are exposed to 20 microliters of sample for three minutes prior to rinsing in DI water. Rinsing is done initially for 10 seconds, and teeth are examined and photographed while illuminated with a standard dental curing lamp. Rinsing is continued for an additional 10 seconds, followed by imaging, and this is repeated for up to 5 minutes to determine “residence times” for each sample to optimize the exposure procedure.
After a 3 minute exposure followed by 20 seconds of rinsing, imaging is performed under the dental curing lamp.
Digital images are taken with a Nikon ABC camera and analyzed using ImageJ image analysis software. In particular, the “mean gray value” measurement tool is used to compare grayscale brightness between the carious lesion and the background tooth as a measurement of contrast. […]

FITC-dextran
retention in carious lesions on rinsing in DI water (controls: rinse times of more than 20 seconds, cationic StNP: up to five minutes): fully washed away
illumination of carious lesions (statistical analysis of percent intensity difference) (versus untreated teeth / background tooth): did not illuminate carious lesions
